Results reported in PMC6332446, “Acylphloroglucinol Derivatives from the South African Helichrysum niveum and Their Biological Activities” (Molecules, 2015).

Columns and labels:
[1] = ORAC assay, peroxyl radical absorbance capacity (ORACROO); settings: trolox equivalents; AAPH, 37 °C; ± % STDEV
Experimental: (§1) Automated Oxygen Radicals Absorbance Capacity (ORAC) Assay: ORAC was measured according to the method previously described. The method measures the antioxidant scavenging capacity for (a) peroxyl radicals generated by thermal decomposition of 2,2ʹ-azobis ([…]) dihydrochloride (AAPH; ORACROO assay); (b) hydroxyl radical (ORACOH assay), generated by H2O2-Cu^2+ (H2O2, 0.3%; Cu^2+ [as CuSO4], 18 μM, or (c) Cu^2+ [as CuSO4], 18 μM as a transition metal oxidant at 37 °C. ORAC values were expressed as micromoles of trolox equivalents (TE) per milligram of test sample, except when Cu^2+ (without H2O2) was used as an oxidant in the assay. In the presence of Cu^2+ without H2O2, test samples acted as prooxidants rather than antioxidants in the ORAC assay. The copper-initiated prooxidant activity was calculated using [(AreaBlank − AreaSample)/AreaBlank] × 100 and expressed as prooxidant units; one unit equals the prooxidant activity that reduces the area under the fluorescein decay curve by 1% in the ORAC assay.

[2] = ORAC assay, hydroxyl radical absorbance capacity (ORACOH); settings: trolox equivalents; H2O2 0.3%, Cu2+ 18 μM, 37 °C; ± % STDEV
Experimental: as §1

[3] = Copper-initiated prooxidant activity in the ORAC assay; settings: Cu2+ 18 μM without H2O2, 37 °C; one unit = 1% reduction of area under fluorescein decay curve
Experimental: as §1

[4] = Trolox equivalent absorbance capacity (TEAC) assay; settings: trolox equivalents; absorbance 734 nm, 25 °C
Experimental: Trolox Equivalent Absorbance Capacity (TEAC) Assay: The total antioxidant capacity of the test samples in terms of TEAC were measured using a previously described method. Absorbance was read at 734 nm at 25 °C in a plate reader and the results were expressed as μM trolox equivalents per milligram dry weight (μM TE/g DW) of the test samples.

[5] = Ferric-ion reducing antioxidant power (FRAP) assay; settings: ascorbic acid equivalents; absorbance 593 nm; ± % STDEV
Experimental: Ferric-Ion Reducing Antioxidant Power (FRAP) Assay: Working FRAP reagent was prepared in accordance to the method described previously. Absorbance was measured at 593 nm. L-ascorbic acid was used as a standard and the results were expressed as μM ascorbic acid equivalents per milligram dry weight (μM AAE/g DW) of the test samples.

mushroom tyrosinase = assay: Tyrosinase enzyme assay; format: biochemical; settings: L-Tyrosine substrate; samples screened at 100.00 μg/mL upper limit
Experimental: Tyrosinase Enzyme Assay: The tyrosinase inhibitory activity was measured using the spectrophotometric method previously described. Samples were dissolved in DMSO to a stock solution of 1 mg/mL, and further dilutions were then done with 50 mM sodium phosphate buffer (pH 6.5) for all working solutions. […] In the wells of a 96-well plate, 70 µL of each sample working solution was combined with 30 μL of tyrosinase (500 Units/mL in sodium phosphate buffer) in triplicate. After incubation at room temperature for 5 min, 110 μL of substrate (2 mM L-Tyrosine) was added to each well. Final concentrations of the crude extract, isolated compounds, and positive control ranged from 1.0–100 μg/mL. Incubation commenced for 30 min at room temperature and the enzyme activity was determined by measuring the absorbance at 490 nm. The percentage of tyrosinase inhibition was calculated as follows: Tyrosinase inhibition (%) = [(A − B) − (C − D)]/(A − B) × 100 (1) where A is the absorbance of the control with the enzyme, B is the absorbance of the control without the enzyme, C is the absorbance of the test sample with the enzyme and D is the absorbance of the test sample without the enzyme.

[6] = biological target: T1, elastase from porcine pancrease (Sus scrofa, UniProt P00772); assay: biochemical; settings: SANA substrate; samples screened at 100.00 μg/mL upper limit; read-out: Inhibitory Activities IC50, Elastase (converted)
T1 construct: from tissue; host or cells: porcine pancreas
T1 sequence (P00772 27-266): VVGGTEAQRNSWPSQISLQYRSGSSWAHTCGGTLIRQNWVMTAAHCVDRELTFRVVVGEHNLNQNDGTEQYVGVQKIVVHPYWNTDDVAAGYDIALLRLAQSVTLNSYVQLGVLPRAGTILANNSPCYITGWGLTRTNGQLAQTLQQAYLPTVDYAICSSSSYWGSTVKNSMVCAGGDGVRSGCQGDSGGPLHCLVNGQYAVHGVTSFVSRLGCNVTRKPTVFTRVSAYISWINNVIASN
Experimental: Elastase Inhibition Assay: Inhibition of elastase by the test samples was assayed using N-succyl-(Ala)-3-nitroanilide (SANA) as the substrate, monitoring the release of p-nitroanilide by the method described previously. The inhibitory activity determined the intensity of color released during cleavage of SANA by the action of elastase. Briefly, 1 mM SANA was prepared in 0.1 M Tris-HCl buffer pH 8.0 and 200 μL of this solution was added to the 20 μL of sample solution in a 96-Well plate. The mixtures were vortexed and preincubated for 10 min at 25 °C and then 20 μL of elastase from porcine pancrease (0.03 Units/mL) was added. The mixtures were further incubated for 10 min and the absorbance was measured at 410 nm. Methanol was used as control, while oleanolic acid used as a positive control.

[7] = biological target: Acetylcholinesterase (AChE) (Homo sapiens, UniProt P22303); assay: biochemical; settings: 500.00 μg/mL upper concentration limit; read-out: Inhibitory Activities IC50, Acetylcholinesterase (converted)
Acetylcholinesterase (AChE), sequence (P22303 32-614, species assumed): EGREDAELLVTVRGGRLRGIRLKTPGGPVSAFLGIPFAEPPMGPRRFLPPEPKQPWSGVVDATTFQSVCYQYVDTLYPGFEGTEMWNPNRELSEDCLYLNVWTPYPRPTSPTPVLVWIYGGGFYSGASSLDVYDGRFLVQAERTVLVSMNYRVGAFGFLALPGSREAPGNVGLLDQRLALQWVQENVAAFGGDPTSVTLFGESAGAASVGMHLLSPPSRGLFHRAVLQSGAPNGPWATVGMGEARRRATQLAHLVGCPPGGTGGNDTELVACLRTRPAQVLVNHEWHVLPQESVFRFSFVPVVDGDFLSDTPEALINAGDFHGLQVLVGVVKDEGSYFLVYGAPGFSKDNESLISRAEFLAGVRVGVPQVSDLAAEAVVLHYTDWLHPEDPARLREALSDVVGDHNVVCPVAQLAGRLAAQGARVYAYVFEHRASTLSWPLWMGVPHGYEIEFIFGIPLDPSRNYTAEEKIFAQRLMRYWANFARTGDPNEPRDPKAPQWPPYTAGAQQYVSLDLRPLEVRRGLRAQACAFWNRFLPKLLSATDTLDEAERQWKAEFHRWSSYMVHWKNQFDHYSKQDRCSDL
Experimental: Acetylcholinesterase Inhibition Assay: Acetylcholinesterase (AChE) inhibitory activity was measured using Ellman’s method as previously described with minor modifications. AChE catalysis the hydrolysis of acetythiocholine iodide (ACTI as substrate) to thiocholine, which can then react with Ellman’s reagent (DTNB) to produce 5-thio-2-nitrobenzoate (yellow color). In the presence of samples (inhibitors), the release of 5-thio-2-nitrobenzoate (yellow color) is reduced and it is monitored by measuring the absorbance at 450 nm.
In a 96-Well plate, the reaction mixture contains 50 µL of samples pre-incubated with 125 µL of 3 mM 5,5ʹ-Dithiobis-(2-nitrobenzoic acid), and 25 µL AChE (2.0 U/mL), in 50 mM tris-HCl buffer (pH 8.0), with 0.1% bovine serum albumin (BSA) for 15 minutes at 25 °C. Subsequently, 25 µL (15 mM) ACTI was added to the incubation mixture and further incubated for 10 min at 25 °C. […] Absorbance was recorded at 450 nm. The percent AChE inhibitory activity is given by: [A0 − (B − C)]/A0 × 100 (3) where A0 = full enzymatic reaction; B = Activity in the presence of sample; and C = Activity without sample.

Rat liver microsomes = settings: Fe2+-induced, TBARs, samples screened at 50.00 μg/mL, ± STDEV

SMILES	Peroxyl (ORAC peroxyl radical absorbance capacity) [1] [µM TE/g]	Hydroxyl (ORACOH) [2]	Prooxidant (copper-initiated prooxidant activity) [3] [prooxidant units]	TEAC [4] [μM TE/g DW]	FRAP [5] [µMAAE/g]	Inhibitory Activities IC50, Tyrosinase (mushroom tyrosinase) [µg/mL]	IC50 [6] [µM]	IC50 [7] [µM]	Anti-Lipid peroxidation IC50 (Rat liver microsomes) [µg/mL]
CCCC(=O)c1c(O)cc(O)c(C/C=C(\C)COC(C)=O)c1O [Compound 8, 1-butanone-3-(3-methylbut-2-enylacetate)-phloroglucinol]	14218.17 ± 12.36	16.70 ± 1.25 × 10^6 µMTE/g	76.59 ± 0.27	6757.40 ± 4.69	1203.02 ± 2.07	>100.00	197	769	27.56 ± 0.63
CC(C)=CCOc1cc(O)c(C(=O)C(C)C)c(O)c1 [Compound 5, 1-(2-methylpropanone)-4-O-prennyl-phloroglucinol]	6053.87 ± 18.67	5.60 ± 0.79 × 10^6 µMTE/g	12.33 ± 6.62	2673.62 ± 1.68	446.64 ± 8.07	>100.00	263	957	20.22 ± 2.72
CCC(C)C(=O)c1c(O)cc(O)c(CC=C(C)C)c1O (stereo not drawn) [Compound 7, 1-(2-methylbutanone)-3-prenyl-phloroglucinol]	14139.74 ± 5.96	23.12 ± 18.94 × 10^6 µMTE/g	73.87 ± 1.10	9998.71 ± 2.66	1029.03 ± 0.66	>100.00	240	936	27.49 ± 3.19
CCC(C)C(=O)c1c(O)cc(OCC=C(C)C)cc1O (stereo not drawn) [Compound 4, 1-(2-methylbutanone)-4-O-prenyl-phloroglucinol]	5406.65 ± 1.39	3.92 ± 14.47 × 10^6 µMTE/g	7.02 ± 4.02	1629.10 ± 2.03	194.27 ± 1.78	>100.00	164	981	44.62 ± 2.08
CC(C)C(=O)c1c(O)cc(O)c2c1OC(C)(C)[C@@H](O)C2 [Compound 3, 8-(2-methyl-1-propanone)-3S,5,7-trihydroxyl-2,2-dimethylchromane]	3937.78 ± 25.85	5.99 ± 4.52 × 10^6 µMTE/g	41.73 ± 8.20	6001.40 ± 5.63	155.65 ± 12.02	80.31 ± 3.31	90.3	974	>50.00
